Assay results from patent US20110135671A1, “PURINE DERIVATIVES FOR USE IN THE TREATMENT OF ALLERGIC, INFLAMMATORY AND INFECTIOUS DISEASES” (GLAXOSMITHKLINE LLC, priority 2008, published 2011).

These compounds were tested on Interferon-α (assay: Induction of Interferon-α using cryopreserved human PBMCs). Details: PBMC, 24 h, normalised to 1 uM resiquimod, read-out: mean pEC50 for induction of Interferon-α (converted).
Assay type: cell-based
Procedure: Assay for the Induction of Interferon-α using Cryopreserved Human Peripheral Blood Mononuclear Cells (PBMCs)
Compounds were dissolved in DMSO. Serial 2-fold dilutions with DMSO were prepared and 0.25 μl dispensed into 384-well clear Greiner polypropylene plates.
Blood samples of up to 200 ml were obtained from healthy human donors. Whole blood in 25 ml volumes was overlaid onto 15 ml Ficoll gradients in Leucosep tubes, and centrifuged at 1000 g for 20 min. Cells in the band at the plasma/histopaque interface were carefully removed and washed twice with PBS (centrifuged at 400 g for 5 min to harvest). The final pellet was resuspended in freezing medium (90% Heat-inactivated serum, 10% DMSO) to a cell concentration of 4×10^7 cells/ml. The resuspended cells were then cryopreserved (frozen) using a rate controlled freezer, and stored at −140° C. for up to 4 months.
Incubation and Assay for Interferon-α
Immediately prior to assay, vials of cryopreserved (frozen) PBMCs were thawed rapidly in a water bath at 37° C. A 1:10 dilution of the cells in trypan blue was prepared and counted. The PBMCs were then diluted in growth media [RPMI 1640 containing 10% fetal calf serum (invitrogen), Penicillin+Streptavidin (Gibco cat. # 25030-024, 1:50), L-Glutamine 2 mM, and 1000 units/ml recombinant human IFN-gamma (Preprotech catalogue #300-02)] to a density of 1×10^6 cells/ml, and 50 ul/well dispensed to 384-well clear Greiner polypropylene plates containing 0.25 μl DMSO or test compound in 0.25 μl DMSO. […] Plates were incubated for 24 h at 37° C. in 5% CO2.
A multi-isoform immunoassay was used to quantify IFN-α in PBMC supernatants. Rabbit polyclonal antibody against human IFN-α (catalogue number 31101, Stratech Scientific) was diluted 1:10000 in assay buffer (RPMI 1640 containing 10% fetal calf serum, Invitrogen) and 20 μl was added to each well of an MSD (Meso-Scale Discovery) single small-spot 384-well GAR (goat anti-rabbit antibody coated) plate. The plate was incubated for 1 h at room temperature with vigorous shaking. Following three washes with PBS, 20 μl of cell supernatant were added to each well of the plate. The plate was then incubated for 1 h at room temperature with vigorous shaking. A pair of monoclonal antibodies to IFN-α (catalogue numbers 21100 and 21112, Stratech Scientific) were labelled with sulfo-TAG (MSD), diluted 1:1000 in assay buffer and 20 μl added to each well of the plate. The plate was further incubated for 1 h at room temperature with vigorous shaking. Following three washes with PBS, 30 μl of ×2 T buffer (MSD) was added to each well and the plate was read on an MSD Sector 6000 plate reader.
Data were normalised to internal plate controls of 1 uM resiquimod (n=16) and DMSO (n=16). pEC50 values were derived by 4-parameter curve fit with IRLS in ActivityBase, from 11-point, two-fold serial dilution of test compounds.
Compound `CCC[C@H](C)Oc1nc(N)c2[nH]c(=O)n(CCCCCN3CCNCC3)c2n1` [Example 49, 6-Amino-2-{[(1S)-1-methylbutyl]oxy}-9-[5-(1-piperazinyl)pentyl]-7,9-dihydro-8H-purin-8-one] has an EC50 of less than 3.16 µM. `CC(C)N1CCN(CCCCn2c(=O)[nH]c3c(N)nc(OC4CCCCC4)nc32)CC1` [Example 73, 6-Amino-2-(cyclohexyloxy)-9-{4-[4-(1-methylethyl)-1-piperazinyl]butyl}-7,9-dihydro-8H-purin-8-one] gave an EC50 of less than 3.16 µM. `CCCCNc1nc(N)c2[nH]c(=O)n(CCCCN3CCN(C4CCCCC4)CC3)c2n1` [Example 44, 6-Amino-2-(butylamino)-9-[4-(4-cyclohexyl-1-piperazinyl)butyl]-7,9-dihydro-8H-purin-8-one] gave an EC50 of less than 3.16 µM. Compound `CCCCOc1nc(N)c2[nH]c(=O)n(CCCCN3CCN(CCCC)CC3)c2n1` [Example 30, 6-Amino-2-(butyloxy)-9-[4-(4-butyl-1-piperazinyl)butyl]-7,9-dihydro-8H-purin-8-one] has an EC50 of less than 3.16 µM. `CCCCOc1nc(N)c2[nH]c(=O)n(CCCN3CCN(CC)CC3)c2n1` [Example 7, 6-Amino-2-(butyloxy)-9-[3-(4-ethyl-1-piperazinyl)propyl]-7,9-dihydro-8H-purin-8-one] was tested, and the EC50 was less than 3.16 µM. `CCCCNc1nc(N)c2[nH]c(=O)n(CCCCN3CCN(CC(C)C)CC3)c2n1` [Example 40, 6-Amino-2-(butylamino)-9-{4-[4-(2-methylpropyl)-1-piperazinyl]butyl}-7,9-dihydro-8H-purin-8-one] gave an EC50 of less than 3.16 µM. `CCCCOc1nc(N)c2[nH]c(=O)n(CCCCCN3CCN(C4CCCCC4)CC3)c2n1` [Example 64, 6-Amino-2-(butyloxy)-9-[5-(4-cyclohexyl-1-piperazinyl)pentyl]-7,9-dihydro-8H-purin-8-one] was tested, and the EC50 was less than 3.16 µM. In the case of `CCC[C@H](C)Nc1nc(N)c2[nH]c(=O)n(CCCCN3CCN(C(C)C)CC3)c2n1` [Example 75, 6-Amino-2-{[(1S)-1-methylbutyl]amino}-9-{4-[4-(1-methylethyl)-1-piperazinyl]butyl}-7,9-dihydro-8H-purin-8-one], the EC50 was less than 3.16 µM. For `CCCCNc1nc(N)c2[nH]c(=O)n(CCCN3CCN(C(C)(C)C)CC3)c2n1` [Example 22, 6-Amino-2-(butylamino)-9-{3-[4-(1,1-dimethylethyl)-1-piperazinyl]propyl}-7,9-dihydro-8H-purin-8-one], the EC50 was less than 3.16 µM. `CCCCNc1nc(N)c2[nH]c(=O)n(CCCCN3CCN(CCC)CC3)c2n1` [Example 37, 6-Amino-2-(butylamino)-9-[4-(4-propyl-1-piperazinyl)butyl]-7,9-dihydro-8H-purin-8-one] showed an EC50 of less than 3.16 µM. In the case of `CCCCNc1nc(N)c2[nH]c(=O)n(CCCN3CCN(CC4CC4)CC3)c2n1` [Example 23, 6-Amino-2-(butylamino)-9-{3-[4-(cyclopropylmethyl)-1-piperazinyl]propyl}-7,9-dihydro-8H-purin-8-one], the EC50 was less than 3.16 µM. In the case of `CCCCOc1nc(N)c2[nH]c(=O)n(CCCCCCN3CCN(CC)CC3)c2n1` [Example 56, 6-Amino-2-(butyloxy)-9-[6-(4-ethyl-1-piperazinyl)hexyl]-7,9-dihydro-8H-purin-8-one], the EC50 was less than 3.16 µM. In the case of `CCCCNc1nc(N)c2[nH]c(=O)n(CCCN3CCN(CC)CC3)c2n1` [Example 17, 6-Amino-2-(butylamino)-9-[3-(4-ethyl-1-piperazinyl)propyl]-7,9-dihydro-8H-purin-8-one], the EC50 was less than 3.16 µM. With `CCCCNc1nc(N)c2[nH]c(=O)n(CCN3CCN(C(C)C)CC3)c2n1` [Example 4, 6-Amino-2-(butylamino)-9-{2-[4-(1-methylethyl)-1-piperazinyl]ethyl}-7,9-dihydro-8H-purin-8-one] the EC50 was less than 3.16 µM. In the case of `CCCCNc1nc(N)c2[nH]c(=O)n(CCN3CCN(C)CC3)c2n1` [Example 3, 6-Amino-2-(butylamino)-9-[2-(4-methyl-1-piperazinyl)ethyl]-7,9-dihydro-8H-purin-8-one], the EC50 was less than 3.16 µM. Compound `CCCCNc1nc(N)c2[nH]c(=O)n(CCCCN3CCN(C(C)C)CC3)c2n1` [Example 38, 6-Amino-2-(butylamino)-9-{4-[4-(1-methylethyl)-1-piperazinyl]butyl}-7,9-dihydro-8H-purin-8-one] has an EC50 of less than 3.16 µM. `CCCCNc1nc(N)c2[nH]c(=O)n(CCCN3CCN(CC(C)C)CC3)c2n1` [Example 21, 6-Amino-2-(butylamino)-9-{3-[4-(2-methylpropyl)-1-piperazinyl]propyl}-7,9-dihydro-8H-purin-8-one] showed an EC50 of less than 3.16 µM. Work on `CCCCCN1CCN(CCCCCn2c(=O)[nH]c3c(N)nc(OCCCC)nc32)CC1` [Example 60, 6-Amino-2-(butyloxy)-9-[5-(4-pentyl-1-piperazinyl)pentyl]-7,9-dihydro-8H-purin-8-one] yielded an EC50 of less than 3.16 µM. In the case of `CCCCOc1nc(N)c2[nH]c(=O)n(CCCCCCN3CCN(C)CC3)c2n1` [Example 55, 6-Amino-2-(butyloxy)-9-[6-(4-methyl-1-piperazinyl)hexyl]-7,9-dihydro-8H-purin-8-one], the EC50 was less than 3.16 µM. In the case of `CCCCOc1nc(N)c2[nH]c(=O)n(CCCCN3CCN(C4CCCC4)CC3)c2n1` [Example 34, 6-Amino-2-(butyloxy)-9-[4-(4-cyclopentyl-1-piperazinyl)butyl]-7,9-dihydro-8H-purin-8-one], the EC50 was less than 3.16 µM. `CCC[C@H](C)Oc1nc(N)c2[nH]c(=O)n(CCCCCN3CCN(CC)CC3)c2n1` [Example 51, 6-Amino-9-[5-(4-ethyl-1-piperazinyl)pentyl]-2-{[(1S)-1-methylbutyl]oxy}-7,9-dihydro-8H-purin-8-one] gave an EC50 of less than 3.16 µM. In the case of `CCCCOc1nc(N)c2[nH]c(=O)n(CCCCCN3CCN(C(C)(C)C)CC3)c2n1` [Example 61, 6-Amino-2-(butyloxy)-9-{5-[4-(1,1-dimethylethyl)-1-piperazinyl]pentyl}-7,9-dihydro-8H-purin-8-one], the EC50 was less than 3.16 µM. With `CCCCOc1nc(N)c2[nH]c(=O)n(CCCN3CCN(CCCC)CC3)c2n1` [Example 10, 6-Amino-2-(butyloxy)-9-[3-(4-butyl-1-piperazinyl)propyl]-7,9-dihydro-8H-purin-8-one] the EC50 was less than 3.16 µM. Work on `CCCCNc1nc(N)c2[nH]c(=O)n(CCCN3CCN(CCC)CC3)c2n1` [Example 18, 6-Amino-2-(butylamino)-9-[3-(4-propyl-1-piperazinyl)propyl]-7,9-dihydro-8H-purin-8-one] yielded an EC50 of less than 3.16 µM. Compound `CCCCOc1nc(N)c2[nH]c(=O)n(CCCCN3CCNCC3)c2n1` [Example 67, 6-Amino-2-(butyloxy)-9-[4-(1-piperazinyl)butyl]-7,9-dihydro-8H-purin-8-one] has an EC50 of less than 3.16 µM. `CCCCOc1nc(N)c2[nH]c(=O)n(CCCCCN3CCN(CC4CC4)CC3)c2n1` [Example 65, 6-Amino-2-(butyloxy)-9-{5-[4-(cyclopropylmethyl)-1-piperazinyl]pentyl}-7,9-dihydro-8H-purin-8-one] showed an EC50 of less than 3.16 µM. Compound `CC(C)N1CCN(CCCCn2c(=O)[nH]c3c(N)nc(OC4CCCC4)nc32)CC1` [Example 72, 6-Amino-2-(cyclopentyloxy)-9-{4-[4-(1-methylethyl)-1-piperazinyl]butyl}-7,9-dihydro-8H-purin-8-one] has an EC50 of less than 3.16 µM. Compound `CCCCOc1nc(N)c2[nH]c(=O)n(CCCN3CCN(CCC)CC3)c2n1` [Example 8, 6-Amino-2-(butyloxy)-9-[3-(4-propyl-1-piperazinyl)propyl]-7,9-dihydro-8H-purin-8-one] has an EC50 of less than 3.16 µM. For `CCCCOc1nc(N)c2[nH]c(=O)n(CCCCN3CCN(C4CCCCC4)CC3)c2n1` [Example 35, 6-Amino-2-(butyloxy)-9-[4-(4-cyclohexyl-1-piperazinyl)butyl]-7,9-dihydro-8H-purin-8-one], the EC50 was less than 3.16 µM. Compound `CCCCOc1nc(N)c2[nH]c(=O)n(CCCCCN3CCN(CCCC)CC3)c2n1` [Example 59, 6-Amino-2-(butyloxy)-9-[5-(4-butyl-1-piperazinyl)pentyl]-7,9-dihydro-8H-purin-8-one] has an EC50 of less than 3.16 µM. Compound `CCCCOc1nc(N)c2[nH]c(=O)n(CCCCN3CCN(CC(C)C)CC3)c2n1` [Example 31, 6-Amino-2-(butyloxy)-9-{4-[4-(2-methylpropyl)-1-piperazinyl]butyl}-7,9-dihydro-8H-purin-8-one] has an EC50 of less than 3.16 µM. Compound `CCCCOc1nc(N)c2[nH]c(=O)n(CCCN3CCN(C(C)(C)C)CC3)c2n1` [Example 12, 6-Amino-2-(butyloxy)-9-{3-[4-(1,1-dimethylethyl)-1-piperazinyl]propyl}-7,9-dihydro-8H-purin-8-one] has an EC50 of less than 3.16 µM.
